Results published in ChEMBL document CHEMBL1201862, “PubChem BioAssay data set” (2004).
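Values below derive from 48-hour exposures of cells grown in 96-well plates, with endpoints linearly interpolated between the two concentrations bracketing the appropriate inhibition level. GI50 = concentration required for 50% inhibition of growth.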 Calls of active or inactive are those of the source. Cut-off read from the data, not from the text of the source: active = GI50 up to about 1.1 µM and inactive = higher.

How the values were obtained:
Test in all cases: growth of human tumour cells (NCI), 48 h
HT-29 = tested on: HT-29
HCC 2998 = tested on: HCC 2998
NCI/ADR-RES = tested on: NCI/ADR-RES
RXF 393 = tested on: RXF 393
Hs-578T = tested on: Hs-578T
SK-MEL-28 = tested on: SK-MEL-28
CCRF-CEM = tested on: CCRF-CEM
SF-295 = tested on: SF-295
A498 = tested on: A498
MDA-MB-231 = tested on: MDA-MB-231
U-251 = tested on: U-251
PC-3 = tested on: PC-3
SF-268 = tested on: SF-268
HCT-116 = tested on: HCT-116
SF-539 = tested on: SF-539
NCI-H23 = tested on: NCI-H23
ACHN = tested on: ACHN
HOP-62 = tested on: HOP-62
NCI-H226 = tested on: NCI-H226
HCT-15 = tested on: HCT-15
LOX IMVI = tested on: LOX IMVI
M14 = tested on: M14
Malme-3M = tested on: Malme-3M
T47D = tested on: T47D
IGROV-1 = tested on: IGROV-1
786-0 = tested on: 786-0
A549 = tested on: A549
RPMI-8226 = tested on: RPMI-8226
SK-OV-3 = tested on: SK-OV-3
SK-MEL-2 = tested on: SK-MEL-2
OVCAR-5 = tested on: OVCAR-5
TK-10 = tested on: TK-10
SNB-19 = tested on: SNB-19
NCI-H522 = tested on: NCI-H522
EKVX = tested on: EKVX
UACC-62 = tested on: UACC-62
SNB-75 = tested on: SNB-75
SN12C = tested on: SN12C
SR = tested on: SR
OVCAR-3 = tested on: OVCAR-3
OVCAR-4 = tested on: OVCAR-4
KM12 = tested on: KM12
MDA-MB-435 = tested on: MDA-MB-435
UACC-257 = tested on: UACC-257
SK-MEL-5 = tested on: SK-MEL-5
SW-620 = tested on: SW-620
UO-31 = tested on: UO-31
HOP-92 = tested on: HOP-92
COLO 205 = tested on: COLO 205
BT-549 = tested on: BT-549
HL-60 = tested on: HL-60
MCF7 = tested on: MCF7
DU-145 = tested on: DU-145
CAKI-1 = tested on: CAKI-1
NCI-H460 = tested on: NCI-H460
K562 = tested on: K562
MOLT-4 = tested on: MOLT-4
OVCAR-8 = tested on: OVCAR-8

## COC(=O)C1=C(C)NC2(O)C=CC(=O)C3C(=O)N(c4ccccc4)C(=O)C132 (stereo unspecified)
HT-29
  GI50: 23.3 µM (inactive)
HCC 2998
  GI50: 98.2 µM (inactive)
NCI/ADR-RES
  GI50: > 100 µM (inactive)
RXF 393
  GI50: 83.4 µM (inactive)
Hs-578T
  GI50: > 100 µM (inactive)
SK-MEL-28
  GI50: 32.5 µM (inactive)
CCRF-CEM
  GI50: 35 µM (inactive)
SF-295
  GI50: > 100 µM (inactive)
A498
  GI50: > 100 µM (inactive)
MDA-MB-231
  GI50: > 100 µM (inactive)
U-251
  GI50: > 100 µM (inactive)
PC-3
  GI50: > 100 µM (inactive)
SF-268
  GI50: > 100 µM (inactive)
HCT-116
  GI50: 73.6 µM (inactive)
SF-539
  GI50: > 100 µM (inactive)
NCI-H23
  GI50: > 100 µM (inactive)
ACHN
  GI50: > 100 µM (inactive)
HOP-62
  GI50: > 100 µM (inactive)
NCI-H226
  GI50: > 100 µM (inactive)
HCT-15
  GI50: 63 µM
LOX IMVI
  GI50: 67.3 µM (inactive)
M14
  GI50: 43.1 µM (inactive)
Malme-3M
  GI50: 37.8 µM (inactive)
T47D
  GI50: 36.8 µM (inactive)
IGROV-1
  GI50: > 100 µM (inactive)
786-0
  GI50: 98.2 µM (inactive)
A549
  GI50: > 100 µM (inactive)
RPMI-8226
  GI50: 36.2 µM (inactive)
SK-OV-3
  GI50: > 100 µM (inactive)
SK-MEL-2
  GI50: > 100 µM (inactive)
OVCAR-5
  GI50: 61.2 µM (inactive)
TK-10
  GI50: > 100 µM (inactive)
SNB-19
  GI50: > 100 µM (inactive)
NCI-H522
  GI50: 32.5 µM (inactive)
EKVX
  GI50: > 100 µM (inactive)
UACC-62
  GI50: 97.1 µM (inactive)
SNB-75
  GI50: > 100 µM (inactive)
SN12C
  GI50: > 100 µM (inactive)
SR
  GI50: 76.4 µM (inactive)
OVCAR-3
  GI50: 66.1 µM (inactive)
OVCAR-4
  GI50: > 100 µM (inactive)
KM12
  GI50: > 100 µM (inactive)
MDA-MB-435
  GI50: 64.7 µM (inactive)
UACC-257
  GI50: 90.8 µM (inactive)
SK-MEL-5
  GI50: > 100 µM (inactive)
SW-620
  GI50: 56.5 µM (inactive)
UO-31
  GI50: > 100 µM (inactive)
HOP-92
  GI50: 37.3 µM (inactive)
COLO 205
  GI50: 36.5 µM (inactive)
BT-549
  GI50: 64.1 µM (inactive)
HL-60
  GI50: 63.8 µM (inactive)
MCF7
  GI50: > 100 µM (inactive)
DU-145
  GI50: > 100 µM (inactive)
CAKI-1
  GI50: > 100 µM (inactive)
NCI-H460
  GI50: > 100 µM (inactive)
K562
  GI50: 48.2 µM (inactive)
MOLT-4
  GI50: 90.6 µM (inactive)
OVCAR-8
  GI50: > 100 µM (inactive)

## [O-][n+]1ccccc1Sc1nc(Sc2cccc[n+]2[O-])nc(Sc2cccc[n+]2[O-])n1
HT-29
  GI50: 1.19 µM (inactive)
HCC 2998
  GI50: 1.51 µM (inactive)
NCI/ADR-RES
  GI50: 2.92 µM (inactive)
RXF 393
  GI50: 0.444 µM (active)
Hs-578T
  GI50: 2.08 µM (inactive)
SK-MEL-28
  GI50: 0.697 µM (active)
CCRF-CEM
  GI50: 0.198 µM (active)
SF-295
  GI50: 3.14 µM (inactive)
A498
  GI50: 2.82 µM (inactive)
MDA-MB-231
  GI50: 1.38 µM (inactive)
U-251
  GI50: 1.69 µM (inactive)
PC-3
  GI50: 0.726 µM (active)
SF-268
  GI50: 2.99 µM (inactive)
HCT-116
  GI50: 1.25 µM (inactive)
SF-539
  GI50: 2.06 µM (inactive)
NCI-H23
  GI50: 1.36 µM (inactive)
ACHN
  GI50: 1.54 µM (inactive)
HOP-62
  GI50: 2.98 µM (inactive)
NCI-H226
  GI50: 2.42 µM (inactive)
HCT-15
  GI50: 1.38 µM
LOX IMVI
  GI50: 0.92 µM (active)
M14
  GI50: 1.26 µM (inactive)
Malme-3M
  GI50: 1.95 µM (inactive)
T47D
  GI50: 2.03 µM (inactive)
IGROV-1
  GI50: 0.54 µM (active)
786-0
  GI50: 1.27 µM (inactive)
A549
  GI50: 2.99 µM (inactive)
RPMI-8226
  GI50: 0.385 µM (active)
SK-OV-3
  GI50: 7.24 µM (inactive)
SK-MEL-2
  GI50: 1.8 µM (inactive)
OVCAR-5
  GI50: 1.7 µM (inactive)
TK-10
  GI50: 1.76 µM (inactive)
SNB-19
  GI50: 13 µM (inactive)
NCI-H522
  GI50: 0.745 µM (active)
EKVX
  GI50: 2.34 µM (inactive)
UACC-62
  GI50: 1.22 µM (inactive)
SNB-75
  GI50: 4.2 µM (inactive)
SN12C
  GI50: 1.81 µM (inactive)
SR
  GI50: 0.171 µM (active)
OVCAR-3
  GI50: 1.58 µM (inactive)
OVCAR-4
  GI50: 1.59 µM (inactive)
KM12
  GI50: 1.88 µM (inactive)
MDA-MB-435
  GI50: 1.07 µM (active)
UACC-257
  GI50: 2.4 µM (inactive)
SK-MEL-5
  GI50: 1.31 µM (inactive)
SW-620
  GI50: 0.248 µM (active)
UO-31
  GI50: 1.77 µM (inactive)
HOP-92
  GI50: 1.28 µM (inactive)
COLO 205
  GI50: 0.386 µM (active)
BT-549
  GI50: 1.61 µM (inactive)
HL-60
  GI50: 0.1 µM (active)
MCF7
  GI50: 0.778 µM (active)
DU-145
  GI50: 3.27 µM (inactive)
CAKI-1
  GI50: 0.9 µM (active)
NCI-H460
  GI50: 1.88 µM (inactive)
K562
  GI50: 0.279 µM (active)
MOLT-4
  GI50: 0.189 µM (active)
OVCAR-8
  GI50: 0.569 µM (active)
